Reference: ChEMBL document CHEMBL3044808, “Laboratory and field comparisons of insecticides to reduce infestation of Drosophila suzukii in berry crops” (2011)
Active and inactive are the calls of the source. The rule behind the calls is not given here.

Experiments:
Drosophila suzukii [1] = assay: Insecticidal activity against Drosophila suzukii assessed as mortality at 70.2 g/ha by direct application at 22 degC measured after 24 hr; type: functional, organism-based
Drosophila suzukii [2] = assay: Insecticidal activity against Drosophila suzukii assessed as male mortality at 41 g/ha by direct application at 22 degC measured after 24 hr; type: functional, organism-based
Drosophila suzukii [3] = assay: Insecticidal activity against Drosophila suzukii assessed as male mortality at 2.3 g/ha by direct application at 22 degC measured after 24 hr; type: functional, organism-based
Drosophila suzukii [4] = assay: Insecticidal activity against Drosophila suzukii assessed as male mortality at 112.3 g/ha by direct application at 22 degC measured after 24 hr; type: functional, organism-based
Drosophila suzukii [5] = assay: Insecticidal activity against Drosophila suzukii assessed as male mortality at 3.31 g/ha by direct application at 22 degC measured after 24 hr; type: functional, organism-based
Drosophila suzukii [6] = assay: Insecticidal activity against Drosophila suzukii assessed as mortality at 341.5 g/ha by direct application at 22 degC measured after 24 hr; type: functional
Drosophila suzukii [7] = assay: Insecticidal activity against Drosophila suzukii assessed as mortality at 1.1 g/ha by direct application at 22 degC measured after 24 hr; type: functional
Drosophila suzukii [8] = assay: Insecticidal activity against Drosophila suzukii assessed as mortality at 223.9 g/ha by direct application at 22 degC measured after 24 hr; type: functional
Drosophila suzukii [9] = assay: Insecticidal activity against Drosophila suzukii assessed as mortality at 41 g/ha by direct application at 22 degC measured after 24 hr; type: functional, organism-based
Drosophila suzukii [10] = assay: Insecticidal activity against Drosophila suzukii assessed as mortality at 212.5 g/ha by direct application at 22 degC measured after 24 hr; type: functional, organism-based
Drosophila suzukii [11] = assay: Insecticidal activity against Drosophila suzukii assessed as mortality at 112.3 g/ha by direct application at 22 degC measured after 24 hr; type: functional, organism-based
Drosophila suzukii [12] = assay: Insecticidal activity against Drosophila suzukii assessed as mortality at 113.8 g/ha by direct application at 22 degC measured after 24 hr; type: functional, organism-based
Drosophila suzukii [13] = assay: Insecticidal activity against Drosophila suzukii assessed as mortality at 2.3 g/ha by direct application at 22 degC measured after 24 hr; type: functional
Drosophila suzukii [14] = assay: Insecticidal activity against Drosophila suzukii assessed as mortality at 56.2 g/ha by direct application at 22 degC measured after 24 hr; type: functional
Drosophila suzukii [15] = assay: Insecticidal activity against Drosophila suzukii assessed as mortality at 62.3 g/ha by direct application at 22 degC measured after 24 hr; type: functional
Drosophila suzukii [16] = assay: Insecticidal activity against Drosophila suzukii assessed as mortality at 1 g/ha by direct application at 22 degC measured after 24 hr; type: functional
Drosophila suzukii [17] = assay: Insecticidal activity against Drosophila suzukii assessed as mortality at 3.31 g/ha by direct application at 22 degC measured after 24 hr; type: functional, organism-based
Drosophila suzukii [18] = assay: Insecticidal activity against Drosophila suzukii assessed as mortality at 2.2 g/ha by direct application at 22 degC measured after 24 hr; type: functional
Drosophila suzukii [19] = assay: Insecticidal activity against Drosophila suzukii assessed as mortality at 24 g/ha by direct application at 22 degC measured after 24 hr; type: functional
Drosophila suzukii [20] = assay: Insecticidal activity against Drosophila suzukii assessed as mortality at 112.1 g/ha by direct application at 22 degC measured after 24 hr; type: functional
Drosophila suzukii [21] = assay: Insecticidal activity against Drosophila suzukii assessed as mortality at 112.2 g/ha by direct application at 22 degC measured after 24 hr; type: functional

CN1COCN(Cc2cnc(Cl)s2)/C1=N\[N+](=O)[O-]
Activity (Drosophila suzukii [1]): Active | Activity (Drosophila suzukii [2]): Active | Activity (Drosophila suzukii [3]): Active | Activity (Drosophila suzukii [4]): Active | Activity (Drosophila suzukii [5]): Active

CC1(C)C(C(=O)OC(C#N)c2cccc(Oc3ccccc3)c2)C1(C)C (stereo not drawn) [FENPROPATHRIN]
mortality at 341.5 g/ha (Drosophila suzukii [6]): 100%

O=S1OCC2C(CO1)C1(Cl)C(Cl)=C(Cl)C2(Cl)C1(Cl)Cl (stereo not drawn)
Activity (Drosophila suzukii [7]): Active

CC1(C)C(C=C(Cl)Cl)C1C(=O)OCc1cccc(Oc2ccccc2)c1 (stereo not drawn) [PERMETHRIN]
mortality at 223.9 g/ha (Drosophila suzukii [8]): 100%

C/C=C(\C)C(=O)O[C@H]1C[C@@H](OC(C)=O)[C@@]2(C(=O)OC)CO[C@H]3[C@@H](O)[C@@](C)([C@]45O[C@@]4(C)[C@@H]4C[C@H]5O[C@@H]5OC=C[C@@]54O)[C@H]4[C@]1(CO[C@]4(O)C(=O)OC)[C@@H]32
Activity (Drosophila suzukii [9]): Active | Activity (Drosophila suzukii [2]): Active | Activity (Drosophila suzukii [3]): Active | Activity (Drosophila suzukii [4]): Active | Activity (Drosophila suzukii [5]): Active

O=C(NC(=O)c1c(F)cccc1F)Nc1ccc(OC(F)(F)C(F)OC(F)(F)F)c(Cl)c1 (stereo not drawn)
Activity (Drosophila suzukii [10]): Active

C/C(=N\C#N)N(C)Cc1ccc(Cl)nc1
Activity (Drosophila suzukii [2]): Active | Activity (Drosophila suzukii [3]): Active | Activity (Drosophila suzukii [4]): Active | Activity (Drosophila suzukii [11]): Active | Activity (Drosophila suzukii [5]): Active

CNC(=O)c1cc(Cl)cc(C)c1NC(=O)c1cc(Br)nn1-c1ncccc1Cl
Activity (Drosophila suzukii [12]): Active | Activity (Drosophila suzukii [2]): Active | Activity (Drosophila suzukii [3]): Active | Activity (Drosophila suzukii [4]): Active | Activity (Drosophila suzukii [5]): Active

CNC(=O)Oc1cccc2ccccc12 [CARBARIL]
Activity (Drosophila suzukii [2]): Active | Activity (Drosophila suzukii [3]): Active | Activity (Drosophila suzukii [4]): Active | mortality at 2.3 g/ha (Drosophila suzukii [13]): 100% | Activity (Drosophila suzukii [5]): Active

CC(C)[C@H](C(=O)O[C@H](C#N)c1cccc(Oc2ccccc2)c1)c1ccc(Cl)cc1
mortality at 56.2 g/ha (Drosophila suzukii [14]): 100%

C=CCC1=C(C)C(OC(=O)C2C(C=C(C)C)C2(C)C)CC1=O (stereo not drawn) [Allethrin]
mortality at 62.3 g/ha (Drosophila suzukii [15]): 79%

CNC(=O)ON=C(C)SC [METHOMYL]
mortality at 1 g/ha (Drosophila suzukii [16]): 100%

CC[C@H](C)[C@H]1O[C@]2(C=C[C@@H]1C)C[C@@H]1C[C@@H](C/C=C(\C)[C@@H](O[C@H]3C[C@H](OC)[C@@H](O[C@H]4C[C@H](OC)[C@@H](O)[C@H](C)O4)[C@H](C)O3)[C@@H](C)/C=C/C=C3\CO[C@@H]4[C@H](O)C(C)=C[C@@H](C(=O)O1)[C@]34O)O2.CO[C@H]1C[C@H](O[C@H]2[C@H](C)O[C@@H](O[C@@H]3/C(C)=C/C[C@@H]4C[C@@H](C[C@]5(C=C[C@H](C)[C@@H](C(C)C)O5)O4)OC(=O)[C@@H]4C=C(C)[C@@H](O)[C@H]5OC/C(=C\C=C\[C@@H]3C)[C@]54O)C[C@@H]2OC)O[C@@H](C)[C@@H]1O
Activity (Drosophila suzukii [2]): Active | Activity (Drosophila suzukii [3]): Active | Activity (Drosophila suzukii [4]): Active | Activity (Drosophila suzukii [5]): Active | Activity (Drosophila suzukii [17]): Active

CCOC(=O)CC(SP(=S)(OC)OC)C(=O)OCC (stereo not drawn) [MALATHION]
mortality at 2.3 g/ha (Drosophila suzukii [13]): 100% | mortality at 2.2 g/ha (Drosophila suzukii [18]): 100%

CCOP(=S)(OCC)Oc1cc(C)nc(C(C)C)n1 [DIMPYLATE]
mortality at 1.1 g/ha (Drosophila suzukii [7]): 100%

CC1(C)C(C=C(Cl)Cl)C1C(=O)OC(C#N)c1ccc(F)c(Oc2ccccc2)c1 (stereo not drawn) [CYFLUTHRIN]
mortality at 24 g/ha (Drosophila suzukii [19]): 100%

Cc1c(COC(=O)[C@@H]2[C@H](/C=C(\Cl)C(F)(F)F)C2(C)C)cccc1-c1ccccc1 (relative stereo) [BIFENTHRIN]
mortality at 112.1 g/ha (Drosophila suzukii [20]): 100% | mortality at 112.2 g/ha (Drosophila suzukii [21]): 100%
